The assay has as its target Hypoxia-inducible factor 1-alpha. Nature of the assay: Inhibition of HIF-1 alpha transcriptional activity in human U-251 cells incubated for 24 hrs under hypoxia condition by luciferse reporter assay. A general note: In a reporter assay the amount or activity of a reporter protein is the signal.
For `COc1ccc(/C=C/C(=O)c2ccc3c(c2O)C=CC(C)(C)O3)cc1OCCN1CCC(C)CC1`, inhibition was half-maximal at 3.99 µM (IC50).

On to `COc1ccc(/C=C/C(=O)c2ccc3c(c2O)C=CC(C)(C)O3)cc1OCCN1CCOCC1`, for which it took 10.6 µM to reach half-maximal inhibition (IC50).

As for `COc1ccc(/C=C/C(=O)c2ccc3c(c2O)C=CC(C)(C)O3)cc1OCCN1CCN(C)CC1`, half-maximal inhibition (IC50) was put at 3.6 µM.

As for `COc1ccc(/C=C/C(=O)c2ccc3c(c2O)C=CC(C)(C)O3)cc1OCCN1CCCC1`, the IC50 (in general, the concentration at which inhibition is half-maximal) is 2.38 µM. Compared with the last compound, the IC50 is about 1.5-fold lower.

For the compound `COc1ccc(/C=C/C(=O)c2ccc3c(c2O)C=CC(C)(C)O3)cc1OCCCN1CCCCC1`, 5.38 µM corresponded to half-maximal inhibition (IC50).

Take `COc1ccc(/C=C/C(=O)c2ccc3c(c2O)C=CC(C)(C)O3)cc1OCCCN1CCC(C)CC1`: the IC50 was 6.23 µM.

In turn, `COc1ccc(/C=C/C(=O)c2ccc3c(c2O)C=CC(C)(C)O3)cc1OCCCN1CCOCC1` displayed an IC50 of 3.31 µM.

For the compound `COc1ccc(/C=C/C(=O)c2ccc3c(c2O)C=CC(C)(C)O3)cc1OCCCN1CCN(C)CC1`, half-maximal inhibition (IC50) was put at 5.19 µM.

`COc1ccc(/C=C/C(=O)c2ccc3c(c2O)C=CC(C)(C)O3)cc1OCCCN1CCCC1` gave an IC50 of 2.38 µM. This IC50 is about 2.2-fold lower than that of the compound before.

As to `CCN(CC)CCCOc1cc(/C=C/C(=O)c2ccc3c(c2O)C=CC(C)(C)O3)ccc1OC`, it took 5.65 µM to reach half-maximal inhibition (IC50). This IC50 is about 2.4-fold higher than that of the compound before.

The compound `COc1cc(/C=C/C(=O)c2ccc3c(c2O)C=CC(C)(C)O3)ccc1OCCN1CCCCC1` gave an IC50 of 5.4 µM.

The compound `COc1cc(/C=C/C(=O)c2ccc3c(c2O)C=CC(C)(C)O3)ccc1OCCN1CCC(C)CC1` displayed an IC50 of 5.75 µM.

`COc1cc(/C=C/C(=O)c2ccc3c(c2O)C=CC(C)(C)O3)ccc1OCCN1CCOCC1` had an IC50 of 8.09 µM.

For `COc1cc(/C=C/C(=O)c2ccc3c(c2O)C=CC(C)(C)O3)ccc1OCCN1CCN(C)CC1`, the IC50 worked out at 3.6 µM. This IC50 lies about 2.2-fold lower than the previous one.

As for `COc1cc(/C=C/C(=O)c2ccc3c(c2O)C=CC(C)(C)O3)ccc1OCCN1CCCC1`, it took 6.45 µM to reach half-maximal inhibition (IC50).

In the case of `CCN(CC)CCOc1ccc(/C=C/C(=O)c2ccc3c(c2O)C=CC(C)(C)O3)cc1OC`, the midpoint of inhibition, the IC50, lay at 6.29 µM.

For `COc1cc(/C=C/C(=O)c2ccc3c(c2O)C=CC(C)(C)O3)ccc1OCCCN1CCCCC1`, the IC50 came out at 5.55 µM. The IC50 values of the last two compounds are within 1.5-fold of each other.

In turn, `COc1cc(/C=C/C(=O)c2ccc3c(c2O)C=CC(C)(C)O3)ccc1OCCCN1CCC(C)CC1` showed an IC50 of 3.78 µM.

Compound `COc1cc(/C=C/C(=O)c2ccc3c(c2O)C=CC(C)(C)O3)ccc1OCCCN1CCOCC1` gave an IC50 of 10.5 µM.

`COc1cc(/C=C/C(=O)c2ccc3c(c2O)C=CC(C)(C)O3)ccc1OCCCN1CCN(C)CC1`: inhibition was half-maximal at 5.76 µM (IC50).

The compound `COc1cc(/C=C/C(=O)c2ccc3c(c2O)C=CC(C)(C)O3)ccc1OCCCN1CCCC1` registered an IC50 of 2.97 µM.

Compound `CCN(CC)CCCOc1ccc(/C=C/C(=O)c2ccc3c(c2O)C=CC(C)(C)O3)cc1OC` showed an IC50 of 6.3 µM.

On to `COc1ccc(/C=C/C(=O)c2ccc3c(c2O)C=CC(C)(C)O3)cc1O`, for which inhibition was half-maximal at 6.98 µM (IC50).

Source of the values: BindingDB's records for doi:10.1016/j.ejmech.2023.115171 (Shenyang Pharmaceutical University, 2023).
